Consider 12 molecules from ChEMBL document CHEMBL2040731, “Synthesis and anti-HIV activity of lupane and olean-18-ene derivatives. Absolute configuration of 19,20-epoxylupanes by VCD” (J Nat Prod, 2012).

Activity calls are given as the source filed them. The rule behind the calls is not given here.

Test [1] has as its system HeLa. Nature of the test: Inhibition of X4-tropic HIV1 envelope glycoprotein-mediated cell-cell fusion between viral envelope expressing human virus-infected HeLa ADA cells to human HeLa P5 cells at 5 uM after 16 hrs by beta-galactosidase reporter gene assay using chemiluminescence method. It is filed as cell-based. As to conditions: Human immunodeficiency virus 1.
The subject of test [2] is HeLa. As to the kind of experiment: Inhibition of R5-tropic HIV1 envelope glycoprotein-mediated cell-cell fusion between viral envelope expressing human virus-infected HeLa ADA cells to human HeLa P5 cells at 5 uM after 16 hrs by beta-galactosidase reporter gene assay using chemiluminescence method. As to conditions: Human immunodeficiency virus 1. It is filed as cell-based. In general terms: A reporter such as luciferase makes a cellular process visible.

Consider `C=C(C=O)[C@@H]1CC[C@]2(C)CC[C@]3(C)[C@H](CC[C@@H]4[C@@]5(C)CC[C@H](OC(C)=O)C(C)(C)[C@@H]5CC[C@]43C)[C@@H]12`, for which the inhibition – broadly, the relative decrease from the control value, in per cent – in test [1] is 6%; in test [2] it was 41%.

In the case of `C=C(C)[C@@H]1CC[C@]2(C)CC[C@]3(C)[C@H](CC[C@@H]4[C@@]5(C)CC[C@H](O)C(C)(C)[C@@H]5CC[C@]43C)[C@@H]12`, the inhibition result in test [1] and in test [2] was “inactive” each time.

With `CC1(C)C=C2[C@H]3CC[C@@H]4[C@@]5(C)CC[C@H](O)C(C)(C)[C@@H]5CC[C@@]4(C)[C@]3(C)CC[C@@]2(C)CC1`, the inhibition result in test [1] and in test [2] was “inactive” in each case.

As to `C=C(C)[C@@H]1CC[C@]2(C)CC[C@]3(C)[C@H](CC[C@@H]4[C@@]5(C)CCC(=O)C(C)(C)[C@@H]5CC[C@]43C)[C@@H]12`, the inhibition result in test [1] and in test [2] was “inactive” throughout.

On to `C=C(C=O)[C@@H]1CC[C@]2(C)CC[C@]3(C)[C@H](CC[C@@H]4[C@@]5(C)CC[C@H](O)C(C)(C)[C@@H]5CC[C@]43C)[C@@H]12`, for which the inhibition entry in test [1] and in test [2] was “inactive” in each case.

On to `CC(=O)O[C@H]1CC[C@]2(C)[C@H]3CC[C@@H]4[C@H]5[C@H]([C@@]6(C)CO6)CC[C@]5(C)CC[C@@]4(C)[C@]3(C)CC[C@H]2C1(C)C`, for which the values for the inhibition in test [1] and in test [2] were 6% and 26%, respectively.

On to `C=C(C)[C@@H]1CC[C@]2(C)CC[C@]3(C)[C@H](CC[C@@H]4[C@@]5(C)CC[C@H](OC(C)=O)C(C)(C)[C@@H]5CC[C@]43C)[C@@H]12`, for which the inhibition in test [1] came out at 15%; in test [2] it was 31%.

`CC(=O)O[C@H]1CC[C@]2(C)[C@H]3CC[C@@H]4[C@]56O[C@H]5C(C)(C)CC[C@]6(C)CC[C@@]4(C)[C@]3(C)CC[C@H]2C1(C)C`: the inhibition entry in test [1] and in test [2] was “inactive” in each case.

Consider `C=C(C=O)[C@@H]1CC[C@]2(C)CC[C@]3(C)[C@H](CC[C@@H]4[C@@]5(C)C=CC(=O)C(C)(C)[C@@H]5CC[C@]43C)[C@@H]12`, for which the inhibition worked out at 44% in test [1] and 28% in test [2].

Turning to `C=C(C)[C@@H]1CC[C@]2(C)CC[C@]3(C)[C@H](CC[C@@H]4[C@@]5(C)CC/C(=N\O)C(C)(C)[C@@H]5CC[C@]43C)[C@@H]12`, the inhibition in test [1] stood at 23%; in test [2] it was 7%.

Regarding `C=C(C=O)[C@@H]1CC[C@]2(CO)CC[C@]3(C)[C@H](CC[C@@H]4[C@@]5(C)CC[C@H](O)C(C)(C)[C@@H]5CC[C@]43C)[C@@H]12`, the inhibition in test [1] is 10%; in test [2], 26%.

Regarding `C=C(C)[C@@H]1CC[C@]2(CO)CC[C@]3(C)[C@H](CC[C@@H]4[C@@]5(C)CC[C@H](O)C(C)(C)[C@@H]5CC[C@]43C)[C@@H]12`, the figures for the inhibition in test [1] and in test [2] were 34% and 17%, respectively.
